Results: the OPERA property sets (Mansouri et al. 2018)

Compound | logP
OCCC(F)(F)F | 0.39
CCC(O)CCC(F)(F)F (stereo not given) | 1.7
OCCCC(F)(F)F | 0.9
CC(CO)CC(F)(F)F (stereo not given) | 1.39
CC(C)(O)C(F)(F)F | 1.04
OCCCCC(F)(F)F | 1.15
OCCCCCC(F)(F)F | 1.64
CC(CCO)C(F)(F)F (stereo not given) | 1.37
CC(CCO)CC(F)(F)F (stereo not given) | 1.61
CC(O)CC(F)(F)F (stereo not given) | 0.71
